Assay results taken from patent publication US4252798A, “Reversible male contraception” (The Upjohn Company, priority 1980, dated 1981).

Experiments:
[1] = tested on: healthy male mammal post-puberty (man); assay: Male contraception by oral administration to man; format: in vivo
Procedure: A 60 kg. Person who is the admitted parent of 2 children is given one 50 mg. tablet daily of 17β-methoxy-2α-methyl-5α-androstan-3-one.
A 60 kg. Person is treated daily with one teaspoonful of a suspension of 2α,3α-epithio-17β-ethoxy-5α-androstane (100 mg./ml.).

[2] = tested on: rat ABP (androgen binding protein) and rat AR (androgen receptor); assay: ABP/AR ratio: relative affinity (vs DHT) for rat ABP and rat AR; conditions: ratio of relative affinity for rat ABP to relative affinity for rat AR, each compared to DHT
Description: The present invention includes steroids which have a high affinity for rat ABP (androgen binding protein) as compared to DHT (dihydrotestosterone, 17β-hydroxy-5α-androst-3-one). N. A. Musto et al. in Endo. Res. Comm. 4, 147 (1977) have described a procedure for isolation and purification of rat ABP. Utilizing the purified rat ABP, and following the procedure of E. M. Ritzen et al. described in J. Biol. Chem. 249, 6597 (1974), the relative affinity of various non-estrogenic-type steroids can readily be determined. The dissociation constant (Kd) measures the affinity of a compound for a protein. The dissociation constant for DHT and the non-estrogenic-type steroids is determined. […]
E. M. Wilson and F. S. French in the J. Biol. Chem. 251, 5620 (1976) have described a procedure for isolation and partial purification of rat AR. Utilizing the rat AR and following the procedure of G. Verhoeven et al. described in Steroids 26, 149 (1975) the relative affinity of various steroids can readily be determined. The dissociation constant for DHT and non-estrogenic steroids is determined. […] D. J. Tindall, et al., in the International Journal of Andrology, Supplement 2 (1978) set forth the preferred method for determining the relative affinities of a steroid for ABP and AR from which the ABP/AR ratio can be calculated. […]

tom = assay: Male contraception by daily treat given to tom; format: in vivo, tom (cat)
Procedure: A 6 kg. tom who has previously sired offspring is given a treat daily containing 20 mg. of 17β-methoxy-2α-methyl-5α-androstan-3-one. […] Eighty days following cessation of administration of the treat, the tom, upon sexual intercourse, fertilizes the same ovulating female at the time of her estrus.

men = conditions: cited from earlier work
normal men = conditions: six normal men; Morse et al., J. Clin. Endocrinol. Metab. 37, 882 (1973); cited from earlier work

## CCO[C@H]1CC[C@H]2[C@@H]3CC[C@H]4C[C@@H]5S[C@@H]5C[C@]4(C)[C@H]3CC[C@]12C [2α,3α-epithio-17β-ethoxy-5α-androstane]
[1]; Example 5: 60 one teaspoonful daily of suspension (100 mg./ml.), after 60 days
  fertilization of a fertile female following sexual intercourse: does not fertilize
[1]; Example 5: further administration
  fertility on further administration: remains infertile

## CO[C@H]1CC[C@H]2[C@@H]3CC[C@H]4C[C@@H]5S[C@@H]5C[C@]4(C)[C@H]3CC[C@]12C [2α,3α-epithio-17β-methoxy-5α-androstane]
[1]; Example 3: 70 one-half teaspoonful/day of elixir (100 mg./ml.), after 60 days
  fertilization of a fertile female following sexual intercourse: does not fertilize
[1]; Example 3: continued daily elixir
  fertility on continued administration: remains infertile

## C[C@@H]1C[C@@]2(C)C(=CC1=O)C[C@@H](C)[C@H]1[C@@H]3CC[C@H](O)[C@@]3(C)CC[C@@H]12 [2α,7α-dimethyltestosterone]
[2]
  ABP/AR ratio: about 6.0

## CO[C@H]1CC[C@H]2[C@@H]3CC[C@H]4CC(=O)[C@H](C)C[C@]4(C)[C@H]3CC[C@]12C [17β-methoxy-2α-methyl-5α-androstan-3-one]
[1]; Example 1: 70 10 mg tablet twice daily for about 100 days
  fertilization of a fertile female following sexual intercourse: does not fertilize
[1]; Example 1: continued twice daily
  fertility on continued administration: remains infertile
[1]; Example 2: 80 200 mg capsule four times daily for 60 days
  fertilization of a fertile female following sexual intercourse: does not fertilize
[1]; Example 2: continued 4 times daily
  fertility on continued administration: remains infertile
[1]; Example 4: continued daily
  fertility on continued administration: remains infertile
tom; Example 6: 6 kg tom, treat with 20 mg daily, after 60 days
  fertilization of an ovulating female at estrus following sexual intercourse: does not fertilize
tom; Example 6: continued daily treat
  fertility on continuous daily administration: remains infertile
tom; Example 6: eighty days following cessation of the treat
  fertilization of the same ovulating female after cessation (reversibility): fertilizes

## CCCCCCC(=O)O[C@H]1CC[C@H]2[C@@H]3CCC4=CC(=O)CC[C@]4(C)[C@H]3CC[C@]12C [testosterone enanthate]
men; Steinberger et al., Fertility and Sterility 27, 216 (1976)
  effect on sperm in men who acknowledged paternity: azoospermia
men; seven men, Mauss et al., Acta. Endocrinol. 78, 373 (1975)
  sperm count: less than 3,000,000 sperm/ml

## CCC(=O)O[C@H]1CC[C@H]2[C@@H]3CCC4=CC(=O)CC[C@]4(C)[C@H]3CC[C@]12C [testosterone propionate]
Normal men
  sperm concentration: sharp drop
  testicular testosterone: decrease
